Laboratory results taken from patent US10765114B2, “4-amino-6-(pyridyl and 2-substitutedphenyl)-picolinates and 6-amino-2-(pyridyl and 2-substitutedphenyl)-pyrimidine-4-carboxylates and their use as herbicides” (Dow AgroSciences LLC, priority 2013, dated 2020).
Read-outs that look alike come from different tables or passages of the source.

Legend:
[1] = system: Key Broadleaf Weed and Crop Species; assay: Post-Emergent Test II (Table 5); assay type: in vivo; details: post-emergence, 336 h; for pest or weed control at 70 g/ha: application rate 70 (kg ai/ha; footnote: g ai/ha); for pest or weed control at 140 g/ha: application rate 140 (kg ai/ha; footnote: g ai/ha)
In short: (§1)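 Seedlings are raised 7-21 days in Metro-Mix 360 (pH 6.0-6.8) under greenhouse conditions, then sprayed at the first or second true leaf stage. Application is 187 L/ha, with serial rates down to 1/16× of the highest. Plants are subirrigated, and percent injury is rated visually after 14 days.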

[2] = system: Key Grass and Sedge Weeds as well as Grass Crops; assay: Post-Emergent Test II (Table 6); assay type: in vivo; details: post-emergence, 336 h, 14 days after application; for pest or weed control at 70 g/ha: 70 g ai/ha; for pest or weed control at 140 g/ha: 140 g ai/ha
In short: as §1

[3] = Abutilon theophrasti, ABUTH: velvetleaf (Abutilon theophrasti), read-out: Visual Growth Reduction (%) 14 Days After Application ABUTH
[4] = Amaranthus retroflexus, AMARE: redroot pigweed (Amaranthus retroflexus), read-out: Visual Growth Reduction (%) 14 Days After Application AMARE
[5] = Brassica napus, BRSSS: oilseed rape, canola (Brassica napus), read-out: Visual Growth Reduction (%) 14 Days After Application BRSSS
[6] = Chenopodium album, CHEAL: lambsquarters (Chenopodium album), read-out: Visual Growth Reduction (%) 14 Days After Application CHEAL
[7] = Euphorbia heterophylla, EPHHL: wild poinsettia (Euphorbia heterophylla), read-out: Visual Growth Reduction (%) 14 Days After Application EPHHL
[8] = Helianthus annuus, HELAN: sunflower (Helianthus annuus), read-out: Visual Growth Reduction (%) 14 Days After Application HELAN
[9] = Viola tricolor, VIOTR: wild pansy (Viola tricolor), read-out: Visual Growth Reduction (%) 14 Days After Application VIOTR
[10] = CYPSS, read-out: Visual Growth Reduction (%) 14 Days After Application CYPSS
[11] = DIGSA: crabgrass (Digitaria sanguinalis), read-out: Visual Growth Reduction (%) 14 Days After Application DIGSA
[12] = ECHSS, read-out: Visual Growth Reduction (%) 14 Days After Application ECHSS
[13] = ORYSS (crop), read-out: Visual Growth Reduction (%) 14 Days After Application ORYSS
[14] = SORVU: grain sorghum (Sorghum vulgare), read-out: Visual Growth Reduction (%) 14 Days After Application SORVU
[15] = TRZSS (crop), read-out: Visual Growth Reduction (%) 14 Days After Application TRZSS
[16] = ZEAMX: maize, corn (Zea mays), read-out: Visual Growth Reduction (%) 14 Days After Application ZEAMX
[17] = SETFA: giant foxtail (Setaria faberi), read-out: Visual Growth Reduction (%) 14 Days After Application SETFA

Row | Structure (SMILES) | pest or weed control at 70 g/ha [1, 3] | pest or weed control at 140 g/ha [1, 3] | pest or weed control at 70 g/ha [1, 4] | pest or weed control at 140 g/ha [1, 4] | pest or weed control at 70 g/ha [1, 5] | pest or weed control at 140 g/ha [1, 5] | pest or weed control at 70 g/ha [1, 6] | pest or weed control at 140 g/ha [1, 6] | pest or weed control at 70 g/ha [1, 7] | pest or weed control at 140 g/ha [1, 7] | pest or weed control at 70 g/ha [1, 8] | pest or weed control at 140 g/ha [1, 8] | pest or weed control at 70 g/ha [1, 9] | pest or weed control at 140 g/ha [1, 9] | pest or weed control at 70 g/ha [2, 11] | pest or weed control at 140 g/ha [2, 11] | pest or weed control at 70 g/ha [2, 13] | pest or weed control at 140 g/ha [2, 13] | pest or weed control at 70 g/ha [2, 14] | pest or weed control at 140 g/ha [2, 14] | other results
1 | COC(=O)c1nc(-c2ccc(Cl)c(F)c2C)nc(N)c1Cl [Compound 31] | 85 to 94% | 85 to 94% | 95 to 100% | 95 to 100% | 30 to 44% | 45 to 59% | 95 to 100% | 95 to 100% | 0 to 29% | 0 to 29% | 85 to 94% | 85 to 94% | 0 to 29% | 0 to 29% | 0 to 29% | 0 to 29% | 0 to 29% | 0 to 29% | 0 to 29% | 0 to 29% | pest or weed control at 70 g/ha [2, 10]: 0 to 29%; pest or weed control at 140 g/ha [2, 10]: 0 to 29%; pest or weed control at 70 g/ha [2, 12]: 0 to 29%; pest or weed control at 140 g/ha [2, 12]: 0 to 29%; pest or weed control at 70 g/ha [2, 15]: 0 to 29%; pest or weed control at 140 g/ha [2, 15]: 0 to 29%; pest or weed control at 70 g/ha [2, 16]: 0 to 29%; pest or weed control at 140 g/ha [2, 16]: 0 to 29%
2 | Cc1c(-c2cc(N)c(Cl)c(C(=O)O)n2)ccc(C(F)(F)F)c1F [Compound 61, 4-amino-3-chloro-6-(3-fluoro-2-methyl-4-(trifluoromethyl)phenyl)picolinic acid] | 85 to 94% | 85 to 94% | 0 to 29% | 0 to 29% | 45 to 59% | 60 to 74% | 85 to 94% | 85 to 94% | 95 to 100% | 95 to 100% | 85 to 94% | 85 to 94% | 0 to 29% | 0 to 29% | 0 to 29% | 0 to 29% | 0 to 29% | 0 to 29% | 0 to 29% | 0 to 29% | pest or weed control at 70 g/ha [2, 12]: 85 to 94%; pest or weed control at 140 g/ha [2, 12]: 85 to 94%; pest or weed control at 70 g/ha [2, 17]: 45 to 59%; pest or weed control at 140 g/ha [2, 17]: 60 to 74%; pest or weed control at 70 g/ha [2, 15]: 0 to 29%; pest or weed control at 140 g/ha [2, 15]: 30 to 44%; pest or weed control at 70 g/ha [2, 16]: 0 to 29%; pest or weed control at 140 g/ha [2, 16]: 0 to 29%
3 | COC(=O)c1nc(-c2ccc(C(F)(F)F)nc2OC)cc(N)c1Cl [Compound 37] | 75 to 84% | 75 to 84% | 60 to 74% | 75 to 84% | 0 to 29% | 30 to 44% | 85 to 94% | 85 to 94% | 0 to 29% | 0 to 29% | 0 to 29% | 60 to 74% | 0 to 29% | 0 to 29% | 0 to 29% | 0 to 29% | 0 to 29% | 0 to 29% | 0 to 29% | 0 to 29% | pest or weed control at 70 g/ha [2, 10]: 0 to 29%; pest or weed control at 140 g/ha [2, 10]: 0 to 29%; pest or weed control at 70 g/ha [2, 17]: 0 to 29%; pest or weed control at 140 g/ha [2, 17]: 0 to 29%; pest or weed control at 70 g/ha [2, 15]: 0 to 29%; pest or weed control at 140 g/ha [2, 15]: 0 to 29%; pest or weed control at 70 g/ha [2, 16]: 0 to 29%; pest or weed control at 140 g/ha [2, 16]: 0 to 29%
4 | COC(=O)c1nc(-c2ccc(Cl)c(F)c2OC)cc(N)c1Cl [Compound 20] | 95 to 100% | 95 to 100% | 95 to 100% | 95 to 100% | 95 to 100% | 95 to 100% | 95 to 100% | 95 to 100% | 0 to 29% | 0 to 29% | 85 to 94% | 95 to 100% | 95 to 100% | 95 to 100% | 0 to 29% | 45 to 59% | 0 to 29% | 0 to 29% | 0 to 29% | 30 to 44% | pest or weed control at 70 g/ha [2, 10]: 30 to 44%; pest or weed control at 140 g/ha [2, 10]: 45 to 59%; pest or weed control at 70 g/ha [2, 12]: 60 to 74%; pest or weed control at 140 g/ha [2, 12]: 75 to 84%; pest or weed control at 70 g/ha [2, 17]: 30 to 44%; pest or weed control at 140 g/ha [2, 17]: 60 to 74%; pest or weed control at 70 g/ha [2, 15]: 0 to 29%; pest or weed control at 140 g/ha [2, 15]: 30 to 44%; pest or weed control at 70 g/ha [2, 16]: 85 to 94%; pest or weed control at 140 g/ha [2, 16]: 85 to 94%
